Results taken from patent publication US20250332265A1, “PSMA TARGETED CONJUGATE COMPOUNDS AND USES THEREOF” (priority 2021, published 2025).
Numbered stars: 1 amine (or outer) side, 2 acyl side, 3 side chain; on linkers, the order of the positions; unused ones are H or OH. Bridge positions count the residues as written; N and C are the ends. Square brackets hold non-standard residues; d marks the D form. Peptide text beside a SMILES is read from it. I, II: the chains in the order shown. * marks the point of attachment. Hexanoyl(6-succinimido-3yl) = O=C1CC([*:1])C(=O)N1CCCCCC(=O)[*:2]; Dolaproine = CO[C@@H]([C@@H]1CCCN1)[C@@H](C)C(=O)O; Dil = CC[C@H](C)[C@H](NC)[C@@H](CC(=O)O)OC; γGlu = O=C(O)[C@H](CCC(=O)[*:2])N[*:1]; PABC = O=C(OCc1ccc(N[*:1])cc1)[*:2]; X1 = C[C@@H](N*)[C@@H](O)c1ccccc1; Trx = NC[C@H]1CC[C@H](C(=O)O)CC1; Cit = NC(=O)NCCC[C@H](N)C(=O)O; NMeV = CN[C@H](C(=O)O)C(C)C; CO = O=C([*:1])[*:2]; Ahx = NCCCCCC(=O)O

Tests used:
[1] = system: PC3pip tumor; assay: In vivo chemoradiotherapy; design: species or system mice
Description: Male athymic nude mice were subcutaneously implanted with the PC3pip tumor, and when the tumor size reached about 100 mm^3 (tumor volume=length×width^2/2), the mice were divided into ten groups randomly. Each group was intravenously injected with PBS, PSMA-AuNCs, PSMA-AuNCs-MMAE, PSMA-MMAE, or a mixture of PSMA-AuNCs and PSMA-MMAE at MMAE dose of 400 nmol/kg and an equivalent dose of Au. At 4 h postinjection, five of the groups were irradiated with X-rays (6 Gy, Cs-137 with energy of 0.6616 MeV) focusing on the tumor region, and the other five groups received the same injections but no radiation and were used as controls. Each group contained five mice. All the treatments were given only once, and then the mice were monitored for tumor size and body weight every other day for one month. The coefficient of drug interaction (CDI) is calculated as follows: CDI=C/(A×B),^44 where C is the tumor volume ratio of PSMA-AuNCs-MMAE+RT group to control group, A is the tumor volume ratio of PSMA-AuNCs+RT group to control group, and B is the tumor volume ratio of PSMA-MMAE+RT group to control group; PBS+RT group is the control. […] When the tumors became too large or an animal was moribund, they were euthanized. At the end of monitoring, all mice were euthanized and tumors were isolated and weighed.

[2] = In vitro cytotoxicity by MTT assay, PC3flu; type: cell-based, human; settings: 5 nM, 24 h, read-out: cell killing / drop of viability, PC3flu cells
Description: (§1) In vitro cytotoxicity was measured by MTT assay. Cells (10000 cells/well) were seeded in 96-well plates and incubated for 24 h before adding 5 nM free MMAE, PSMA-MMAE, or PSMA-AuNCs-MMAE. An equivalent amount of PSMA-AuNCs without MMAE was added as a control, and another group of cells pretreated with 50 μM E64 inhibitor for 6 h was also incubated with PSMA-AuNCs-MMAE. After incubation for 1, 4, and 24 h, cells were rinsed with PBS and incubated with 1 mg/mL MTT solution in culture media for 3.5 h. After that media were removed, and 100 μL of DMSO was added. The absorbance was measured 15 min later by a plate reader (Tecan Infinite M200) with absorbance at 570 nm and reference at 620 nm.

[3] = system: PC3pip cells; assay: In vitro radiotherapy (colony survival); type: cell-based, human; settings: 1 nM MMAE and/or 60 μg Au/mL, 6 h, X-ray 0-6 Gy
Description: Both PC3pip and PC3flu cells (1×10^5 cells/well) were cultured in 6-well plates for 24 h, and then PSMA-AuNC-MMAE and PSMA-MMAE were added at an equivalent MMAE concentration of 1 nM. Additionally, PSMA-AuNCs without MMAE was added at 60 μg Au/mL. Another group with the addition of a mixture of PSMA-AuNCs and PSMA-AuNC-MMAE at the equivalent dose of Au and MMAE was also evaluated. Mixing was performed so as to keep Au concentrations equivalent. This could not be achieved by adding more PSMA-AuNC-MMAE as this would result in toxic levels of MMAE. Cells without any treatment were used as blank control. Following incubation for 6 h, the media were removed, and cells were rinsed by PBS before exposing to X-ray radiation at doses of 0, 2, 4, and 6 Gy. Next, cells were trypsinized, counted, and reseeded in 6-well plate for colonies to grow. After 2 weeks, all the wells were rinsed with PBS, fixed with 4% paraformaldehyde, and stained by 0.4% crystal violet. The number of colonies from each well was counted to calculate the survive fraction.

[4] = system: PC3pip cells; assay: In vitro cytotoxicity by MTT assay, PC3pip; type: cell-based, human; settings: 5 nM, 24 h
Description: as §1

[5] = system: PC3flu cells; assay: In vitro cytotoxicity by MTT assay, PC3flu; type: cell-based, human; settings: 5 nM, 24 h
Description: as §1

[6] = system: PSMA-positive PC3pip cells; assay: In vitro cytotoxicity assay (CCK-8), PC3pip; type: cell-based, human; settings: 72 hours incubation
Description: Cells (1,000/well) were seeded in 96-well culture plates the day before treatment. Cells were incubated with various concentrations of drugs for 72 hours and cell viability evaluated by CCK-8 (Dojindo). The concentration required to reach 50% of cell proliferation was determined (IC50) by GraphPad Prism 3.0.

[7] = system: heterotopic PC3pip tumors; assay: Heterotopic survival study; type: in vivo, mice
Text: Male athymic nude mice were implanted subcutaneously with 1×10^6 of PC3pip cells under the right dorsum of the mice. When tumor size reached approximately 100 mm^3 (tumor volume=Length×width^2/2), mice received drugs through tail vein injection. […] Animals were weighed and tumor size measured every other day for 90 days. Cures were defined as no tumor present at end of the 90-day study. When tumors became too large or animals were moribund they were euthanized. Five mice were used in each group.

[8] = Maximum tolerated dose (MTD); type: in vivo, mice; settings: single dose i.v., tumor-free athymic nude mice
Text: Mice were monitored daily for 14 days.

[9] = system: α-tubulin in PC3pip and PC3flu cells; assay: Immunofluorescence analysis of alpha-tubulin; type: cell-based, human; settings: 5 nM, 24 hours
Description: Cells on coverslips at about 70% confluency were incubated with 5 nM of MMAE, PSMA-1-VcMMAE-Cy5.5 or PSMA-1-McMMAE-Cy5.5 for 24 hours. Cells were washed and fixed with 4% paraformaldehyde for 10 minutes, permeabilized with 0.1% Triton™ X-100 for 10 minutes, and blocked with 1% BSA for 1 hour at room temperature. Alpha-tubulin (B5-1-2) Alexa Fluor 488 Mouse Monoclonal Antibody (Invitrogen) was then added at 2 μg/mL in 0.1% BSA and incubated for 3 hours at room temperature. Cells were counterstained with DAPI, mounted with Fluor-Mount aqueous mounting solution, and observed under Leica DM4000B fluorescence microscopy at 40×.

SMILES | tumor volume increase ([1]; 6 Gy radiation, day 30, MMAE 400 nmol/kg) [%] | tumor volume increase ([1]; no radiation, end of observation, MMAE 400 nmol/kg) [%] | cytotoxicity [2] [%] | radiosensitization (colony survival rate) of PC3pip cells [3] | cell killing, PC3pip cells [4] | cell killing / drop of viability, PC3flu cells [5] | selectivity, differential cytotoxicity between PC3pip and PC3flu cells [6] | time by which all mice died ([7]; 160 nmol/kg) [days] | antitumor activity (tumor growth), words ([7]; 160 nmol/kg i.v. every four days, 5 doses) | maximum tolerated dose (MTD) [8] [nmol/kg] | disruption of α-tubulin network [9]
CC[C@H](C)[C@@H]([C@@H](CC(=O)N1CCC[C@H]1[C@H](OC)[C@@H](C)C(=O)N[C@H](C)[C@@H](O)c1ccccc1)OC)N(C)C(=O)[C@@H](NC(=O)[C@H](C(C)C)N(C)C(=O)OCc1ccc(NC(=O)[C@H](CCCNC(N)=O)NC(=O)[C@@H](NC(=O)CCCCCN2C(=O)CC(SC[C@H](NC(=O)[C@H](Cc3ccc(O)cc3)NC(=O)[C@H](CCCCN)NC(=O)[C@H](CCC(=O)O)NC(=O)[C@H](CCC(=O)O)NC(=O)[C@H](CCC(=O)O)NC(=O)CCCCCNC(=O)[C@H]3CC[C@H](CNC(=O)CC[C@H](NC(=O)N[C@@H](CCC(=O)O)C(=O)O)C(=O)O)CC3)C(N)=O)C2=O)C(C)C)cc1)C(C)C (stereo partly drawn) [PSMA-MMAE] (I: {Glu-CO-γGlu-Trx-Ahx}-EEEKYC-NH2 / II: V[Cit][PABC][NMeV]V[Dil][Dolaproine]-X1; linker I:6-II:N via Hexanoyl(6-succinimido-3yl); C-terminus assumed) | 55 | 163 | 18 | notably lower survival rate | 58% | – | – | – | – | – | –
CC[C@H](C)[C@@H]([C@@H](CC(=O)N1CCC[C@H]1[C@H](OC)[C@@H](C)C(=O)N[C@H](C)[C@@H](O)c1ccccc1)OC)N(C)C(=O)[C@@H](NC(=O)[C@@H](NC)C(C)C)C(C)C [MMAE, monomethyl auristatin E, reference compound] (H-[NMeV]V[Dil][Dolaproine]-X1) | – | – | – | – | over 70% | over 70% | no selectivity | ≤ 36 | relatively ineffective at inhibiting tumor growth | 700 | non-selective tubulin disruption
